Earlier results as cited in US20130028992A1, “Herbal-Based Solution for Treating Symptoms of Nasal Conditions” (priority 2011, published 2013).

Assays:
platelet aggregation = details: case of a heart attack
[1] = system: 25 strains of yeast, bacteria and mold

Row | Structure (SMILES) | time required to take effect (platelet aggregation) | antimicrobial effect of vapor [1]
1 | CC(=O)Oc1ccccc1C(=O)O [aspirin] | thirty | –
2 | C=CCN=C=S [allyl isothiocyanate] | – | can combat 25 strains of yeast, bacteria and mold to varying degrees
